Like-named read-outs stand apart in the source and are kept apart here. Blank lines part the entries; values can stand above or below the molecule they belong to.
What was measured:
[1] = target: T1, EGFR (Homo sapiens, UniProt P00533); test: In vitro kinase activity assay (Nanosyn); type: biochemical; details: for IC50: 5 μM ATP
Target sequence in this assay (P00533 25-1210): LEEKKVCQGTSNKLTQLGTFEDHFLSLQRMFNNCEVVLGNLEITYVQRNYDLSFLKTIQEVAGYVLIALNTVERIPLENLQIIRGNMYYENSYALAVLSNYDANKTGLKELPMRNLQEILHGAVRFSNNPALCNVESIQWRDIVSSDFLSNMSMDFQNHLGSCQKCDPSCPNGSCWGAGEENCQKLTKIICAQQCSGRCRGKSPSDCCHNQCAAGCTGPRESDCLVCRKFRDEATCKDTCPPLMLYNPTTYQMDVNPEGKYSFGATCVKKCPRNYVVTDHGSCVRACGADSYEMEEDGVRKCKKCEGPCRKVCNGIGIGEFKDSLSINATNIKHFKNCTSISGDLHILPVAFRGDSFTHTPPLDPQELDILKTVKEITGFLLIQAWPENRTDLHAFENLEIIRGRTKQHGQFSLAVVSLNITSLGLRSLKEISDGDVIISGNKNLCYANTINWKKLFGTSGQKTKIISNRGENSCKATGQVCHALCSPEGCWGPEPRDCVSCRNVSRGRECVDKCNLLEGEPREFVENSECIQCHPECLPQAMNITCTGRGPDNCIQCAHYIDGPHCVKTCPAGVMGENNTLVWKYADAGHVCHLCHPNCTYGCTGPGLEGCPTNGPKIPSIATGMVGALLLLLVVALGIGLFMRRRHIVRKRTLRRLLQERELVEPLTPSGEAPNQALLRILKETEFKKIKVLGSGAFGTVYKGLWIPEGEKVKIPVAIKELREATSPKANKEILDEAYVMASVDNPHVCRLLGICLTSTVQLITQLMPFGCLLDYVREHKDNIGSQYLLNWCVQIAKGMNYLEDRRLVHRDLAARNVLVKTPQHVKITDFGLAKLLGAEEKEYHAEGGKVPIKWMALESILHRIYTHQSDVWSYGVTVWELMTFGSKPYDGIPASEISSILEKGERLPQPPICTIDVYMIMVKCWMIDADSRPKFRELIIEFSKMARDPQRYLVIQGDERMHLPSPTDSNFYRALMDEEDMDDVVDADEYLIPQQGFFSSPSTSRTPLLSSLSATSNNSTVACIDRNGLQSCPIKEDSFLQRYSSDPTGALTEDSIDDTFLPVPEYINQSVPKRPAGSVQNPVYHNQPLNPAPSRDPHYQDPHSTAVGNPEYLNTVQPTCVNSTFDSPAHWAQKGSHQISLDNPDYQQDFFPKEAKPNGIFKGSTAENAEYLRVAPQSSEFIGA

[2] = target: T1, EGFR; test: Fluorescence intensity measurement of CoLDR turn-on probe; type: binding; parameters: EGFR kinase domain was a generous gift from Prof; Michael Eck; gift from Prof; details: 2 μM probe, 2 μM protein
Description: (§1) A 2 μM concentration of BTK, EGFR, or K-RAS^G12C was added to 2 μM 3k, 4b, or 5a, respectively. […] Each condition was done in triplicates in 20 mM Tris pH 8.0 and 50 mM NaCl for BTK and K-RAS^G12C and in 50 mM Tris pH 8.0 and 100 mM NaCl for EGFR at 32 °C. Fluorescent measurements were taken every 2 min for 2 h for BTK and EGFR and every 10 min for 15 h for K-RAS^G12C. At the end of the measurements, samples were injected directly into the LC/MS for labeling quantification. K-Ras^G12C was expressed and purified as previously described,[69] EGFR kinase domain was a generous gift from Prof. Michael Eck.
Target sequence in this assay (P00533 712-979 limits assumed): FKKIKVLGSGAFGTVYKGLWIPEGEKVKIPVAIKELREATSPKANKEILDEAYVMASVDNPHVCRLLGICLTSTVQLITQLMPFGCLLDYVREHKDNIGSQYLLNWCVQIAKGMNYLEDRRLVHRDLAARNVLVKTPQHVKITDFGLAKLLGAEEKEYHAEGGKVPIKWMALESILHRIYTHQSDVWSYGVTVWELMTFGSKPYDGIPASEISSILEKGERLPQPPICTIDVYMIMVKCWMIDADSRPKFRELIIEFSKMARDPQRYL

[3] = system: primary mouse B cells; test: B-cell response experiment (anti-IgM activation, CD86 by flow cytometry); type: cell-based; details: representative FACS plot, concentration not given
[4] = target: BLK (Homo sapiens, UniProt P51451); test: In vitro kinase activity assay (Nanosyn)
Chain of BLK (P51451 whole entry, species assumed): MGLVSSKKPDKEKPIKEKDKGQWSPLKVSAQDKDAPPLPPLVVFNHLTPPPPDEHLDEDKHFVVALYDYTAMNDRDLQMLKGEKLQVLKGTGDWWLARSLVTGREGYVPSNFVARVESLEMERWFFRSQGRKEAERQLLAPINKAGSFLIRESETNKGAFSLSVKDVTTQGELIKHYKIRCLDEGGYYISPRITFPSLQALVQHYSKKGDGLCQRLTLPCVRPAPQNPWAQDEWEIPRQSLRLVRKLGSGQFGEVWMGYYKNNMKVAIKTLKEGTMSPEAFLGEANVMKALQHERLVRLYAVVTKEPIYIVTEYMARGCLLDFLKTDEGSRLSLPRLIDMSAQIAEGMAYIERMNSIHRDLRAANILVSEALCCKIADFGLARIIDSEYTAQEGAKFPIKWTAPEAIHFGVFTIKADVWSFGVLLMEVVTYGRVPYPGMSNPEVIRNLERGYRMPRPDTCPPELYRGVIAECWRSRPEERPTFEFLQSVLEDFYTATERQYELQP

[5] = target: T2, BMX (Homo sapiens, UniProt P51813); test: In vitro kinase activity assay (Nanosyn)
T2 sequence (P51813 1-675): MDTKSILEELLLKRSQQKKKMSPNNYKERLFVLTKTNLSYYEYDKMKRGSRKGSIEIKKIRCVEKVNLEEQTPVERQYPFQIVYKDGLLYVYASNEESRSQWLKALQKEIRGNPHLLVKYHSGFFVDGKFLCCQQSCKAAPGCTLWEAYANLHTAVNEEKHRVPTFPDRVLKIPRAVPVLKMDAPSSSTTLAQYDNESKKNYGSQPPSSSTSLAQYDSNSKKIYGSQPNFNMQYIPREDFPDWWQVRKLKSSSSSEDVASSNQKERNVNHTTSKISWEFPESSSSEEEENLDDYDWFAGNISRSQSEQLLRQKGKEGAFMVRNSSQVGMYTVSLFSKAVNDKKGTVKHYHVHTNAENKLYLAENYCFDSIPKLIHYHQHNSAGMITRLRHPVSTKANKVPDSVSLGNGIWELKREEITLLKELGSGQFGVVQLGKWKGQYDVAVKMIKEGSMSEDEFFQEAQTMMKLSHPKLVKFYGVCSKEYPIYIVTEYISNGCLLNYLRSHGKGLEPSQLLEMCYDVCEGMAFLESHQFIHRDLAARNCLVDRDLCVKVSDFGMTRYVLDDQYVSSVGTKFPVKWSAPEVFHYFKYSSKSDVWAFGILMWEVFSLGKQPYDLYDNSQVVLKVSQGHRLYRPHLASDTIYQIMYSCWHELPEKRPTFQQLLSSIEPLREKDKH

[6] = target: ERBB2 (Homo sapiens, UniProt P04626); test: In vitro kinase activity assay (Nanosyn)
Chain of ERBB2 (P04626 23-1255, species assumed): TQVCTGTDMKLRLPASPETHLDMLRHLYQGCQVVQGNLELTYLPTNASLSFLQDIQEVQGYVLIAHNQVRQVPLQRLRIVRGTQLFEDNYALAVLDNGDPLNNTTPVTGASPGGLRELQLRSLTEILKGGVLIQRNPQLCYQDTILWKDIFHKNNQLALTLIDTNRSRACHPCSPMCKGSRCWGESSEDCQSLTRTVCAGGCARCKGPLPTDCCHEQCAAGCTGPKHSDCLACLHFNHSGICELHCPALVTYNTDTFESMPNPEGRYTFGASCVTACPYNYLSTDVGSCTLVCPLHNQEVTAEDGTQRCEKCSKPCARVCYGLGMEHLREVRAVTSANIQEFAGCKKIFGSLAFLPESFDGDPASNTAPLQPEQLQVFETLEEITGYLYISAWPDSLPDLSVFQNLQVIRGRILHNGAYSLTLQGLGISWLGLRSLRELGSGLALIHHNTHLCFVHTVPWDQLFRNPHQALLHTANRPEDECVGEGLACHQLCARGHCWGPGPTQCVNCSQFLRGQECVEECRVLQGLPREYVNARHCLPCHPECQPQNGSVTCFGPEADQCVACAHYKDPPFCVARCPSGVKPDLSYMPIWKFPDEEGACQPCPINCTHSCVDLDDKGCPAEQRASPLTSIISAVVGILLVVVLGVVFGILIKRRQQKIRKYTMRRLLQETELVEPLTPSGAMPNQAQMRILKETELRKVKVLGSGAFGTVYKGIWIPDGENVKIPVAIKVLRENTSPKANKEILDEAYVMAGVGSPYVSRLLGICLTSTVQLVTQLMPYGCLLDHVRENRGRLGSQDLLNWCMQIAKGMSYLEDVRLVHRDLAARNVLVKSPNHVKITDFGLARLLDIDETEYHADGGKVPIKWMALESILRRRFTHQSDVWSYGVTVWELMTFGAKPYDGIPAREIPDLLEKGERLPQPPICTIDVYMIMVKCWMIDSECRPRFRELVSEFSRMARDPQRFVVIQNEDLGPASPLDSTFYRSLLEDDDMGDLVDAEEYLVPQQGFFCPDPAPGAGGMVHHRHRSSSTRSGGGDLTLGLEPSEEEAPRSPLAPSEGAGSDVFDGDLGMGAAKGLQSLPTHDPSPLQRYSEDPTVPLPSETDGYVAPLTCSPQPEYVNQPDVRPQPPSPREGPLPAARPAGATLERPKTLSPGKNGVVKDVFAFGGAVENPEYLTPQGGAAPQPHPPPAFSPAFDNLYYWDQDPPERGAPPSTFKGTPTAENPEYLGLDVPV

[7] = target: T3, ITK (Homo sapiens, UniProt Q08881); test: In vitro kinase activity assay (Nanosyn)
T3 sequence (Q08881 1-620): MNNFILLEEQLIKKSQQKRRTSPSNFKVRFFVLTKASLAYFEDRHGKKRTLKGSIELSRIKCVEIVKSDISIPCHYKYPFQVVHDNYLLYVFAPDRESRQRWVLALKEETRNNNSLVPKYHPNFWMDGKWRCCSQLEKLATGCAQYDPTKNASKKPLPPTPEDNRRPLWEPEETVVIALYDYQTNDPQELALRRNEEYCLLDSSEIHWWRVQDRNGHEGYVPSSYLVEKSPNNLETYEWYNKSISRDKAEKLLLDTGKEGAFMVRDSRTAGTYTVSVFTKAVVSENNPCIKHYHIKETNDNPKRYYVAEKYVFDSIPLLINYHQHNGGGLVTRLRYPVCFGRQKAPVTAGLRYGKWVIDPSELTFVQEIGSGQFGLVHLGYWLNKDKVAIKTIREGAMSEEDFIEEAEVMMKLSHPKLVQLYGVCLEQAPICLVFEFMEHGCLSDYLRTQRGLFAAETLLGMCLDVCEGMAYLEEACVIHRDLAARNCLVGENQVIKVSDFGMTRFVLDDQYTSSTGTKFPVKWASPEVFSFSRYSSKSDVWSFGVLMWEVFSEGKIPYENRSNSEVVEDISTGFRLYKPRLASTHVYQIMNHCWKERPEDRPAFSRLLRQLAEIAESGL

[8] = target: BTK (Homo sapiens, UniProt Q06187); test: biochemical; parameters: HTS: BTK preincubated 15 min with compound, then chemiluminescent covalent probe 3l; loss of luminescence at 30 min; details: 0.75 uM BTK, 1.5 uM probe 3l, 15 min preincubation
Chain of BTK (Q06187 402-655 limits assumed): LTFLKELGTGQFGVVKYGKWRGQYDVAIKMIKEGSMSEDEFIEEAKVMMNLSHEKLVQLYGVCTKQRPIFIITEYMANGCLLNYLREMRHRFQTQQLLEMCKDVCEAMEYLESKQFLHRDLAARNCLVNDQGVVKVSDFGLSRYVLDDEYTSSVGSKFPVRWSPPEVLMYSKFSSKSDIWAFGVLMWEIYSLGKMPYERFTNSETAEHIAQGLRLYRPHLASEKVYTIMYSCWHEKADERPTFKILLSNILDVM

[9] = target: BTK kinase domain (Homo sapiens, UniProt Q06187); test: Kinetic labeling of BTK by intact protein LC/MS; type: binding
Chain of BTK kinase domain (Q06187 402-655 limits assumed): as above

[10] = target: wild-type BTK (Homo sapiens, UniProt Q06187); test: In vitro kinase activity assay (Nanosyn)
Chain of wild-type BTK (Q06187 whole entry): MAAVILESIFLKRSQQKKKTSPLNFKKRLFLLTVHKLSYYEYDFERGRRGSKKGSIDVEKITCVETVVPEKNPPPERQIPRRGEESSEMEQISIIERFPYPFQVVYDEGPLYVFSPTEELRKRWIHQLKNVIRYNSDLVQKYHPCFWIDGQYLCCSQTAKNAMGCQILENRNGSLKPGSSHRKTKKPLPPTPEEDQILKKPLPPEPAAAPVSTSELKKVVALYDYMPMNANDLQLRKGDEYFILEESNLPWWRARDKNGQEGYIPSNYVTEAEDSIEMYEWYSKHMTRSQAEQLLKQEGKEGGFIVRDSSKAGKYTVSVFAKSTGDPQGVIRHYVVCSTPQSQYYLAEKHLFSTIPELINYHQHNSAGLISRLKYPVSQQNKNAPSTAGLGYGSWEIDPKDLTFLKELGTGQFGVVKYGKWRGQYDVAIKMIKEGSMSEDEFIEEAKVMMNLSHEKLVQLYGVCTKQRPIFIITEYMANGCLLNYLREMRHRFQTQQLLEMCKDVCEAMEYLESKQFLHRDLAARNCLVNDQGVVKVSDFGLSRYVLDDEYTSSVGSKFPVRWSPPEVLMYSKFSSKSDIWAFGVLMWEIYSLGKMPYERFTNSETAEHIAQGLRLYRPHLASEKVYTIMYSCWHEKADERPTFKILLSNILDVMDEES

[11] = GSH reactivity assay for ibrutinib derivatives (LC/MS); type: physicochemical; details: 5 mM GSH in phosphate buffer/DMF 9:1, 100 μM compound, buffer pH 8.0:DMF 9:1, 37 °C
[12] = target: K-Ras^G12C (Homo sapiens, UniProt P01116, G12C); test: Fluorescence intensity measurement of CoLDR turn-on probe; type: binding; details: 2 μM probe, 2 μM protein
Description: as §1

[13] = system: Mino cells; test: In-gel fluorescence activity-based profiling (in situ proteomic labeling); type: cell-based; details: Mino cells treated for 2 h, TAMRA-azide click
Description: Mino cells were treated for 2 h with either 0.1% DMSO or the indicated concentrations of IA-alkyne, 2a, 2b, and 2c. The cells were lysed with RIPA buffer (Sigma), and protein concentration was determined using the BCA protein assay (Thermo Fisher Scientific). Lysates were then diluted to 2 mg/mL in PBS and clicked to TAMRA-azide (click chemistry tools). Click reaction was performed using a final concentration of 40 μM TAMRA-azide, 3 mM CuSO4, 3 mM tris(3-hydroxypropyltriazolylmethyl)amine (THPTA, Sigma), and 3.7 mM sodium L-ascorbate (Sigma) in a final volume of 60 μL. The samples were incubated at 25 °C for 2 h. A 20 μL amount of 4× LDS sample buffer (NuPAGE, Thermo Fischer Scientific) was added followed by a 10 min incubation at 70 °C. The samples were then loaded on a 4–20% Bis-Tris gel (SurePAGE, GeneScript) and imaged using a Typhoon FLA 9500 scanner.

[14] = BTK IC50, in vitro kinase activity assay
[15] = BTK IC50, rounded, 2 h preincubation, 5 μM ATP

SMILES: C[C@]12CC[C@H](O)C[C@@]1(O)CC[C@@H]1[C@@H]2CC[C@]2(C)[C@@H](C3=CC(=O)OC3)CC[C@]12O [PCM-0216443]
inhibition at 10 µM [8]: 6.2%

SMILES: C=C(CN(C)c1ccccc1)C(=O)N1CCC[C@@H](n2nc(-c3ccc(Oc4ccccc4)cc3)c3c(N)ncnc32)C1 [3d]
half-life at 100 μM [11]: > 100 h
IC50 [10]: 5.6 nM

SMILES: C=C(COc1ccc2ccc(=O)oc2c1)C(=O)N1CCN(c2nc(=O)n(-c3c(C)ccnc3C(C)C)c3nc(-c4c(O)cccc4F)c(F)cc23)[C@@H](C)C1 [5a]
released coumarin fluorescence with K-RAS^G12C [12]: significant increase in fluorescence intensity

SMILES: C#CCCNC(=O)C(=C)CN(C)c1ccccc1 [2c]
in situ proteomic labeling (in-gel fluorescence) [13]: completely inactive

The next lines start with results.

IC50 ([1]; EGFR kinase activity assay, 0.75 nM EGFR): 3.3 nM
SMILES: C=C(COc1ccc2ccc(=O)oc2c1)C(=O)Nc1cc2c(Nc3ccc(F)c(Cl)c3)ncnc2cc1OC [4b]
released coumarin fluorescence with EGFR [2]: significant increase in fluorescence intensity

IC50 ([1]; rounded, 2 h preincubation): 31 nM
IC50 [4]: 0.8 nM
IC50 [5]: 0.4 nM
IC50 [6]: 172 nM
IC50 [7]: 232 nM
SMILES: C=C(COC(=O)OC)C(=O)N1CCC[C@@H](n2nc(-c3ccc(Oc4ccccc4)cc3)c3c(N)ncnc32)C1 [3i]
B220+ cells-activated (CD86 positive) [3]: 85.0%

IC50 ([1]; rounded, 2 h preincubation): 7 nM
IC50 [10, 14]: < 0.1 nM
IC50 [10, 15]: 0.1 nM
IC50 [4]: 0.1 nM
IC50 [5]: 0.3 nM
IC50 [6]: 33 nM
IC50 [7]: 43 nM
SMILES: C=C(CN1CCCCC1)C(=O)N1CCC[C@@H](n2nc(-c3ccc(Oc4ccccc4)cc3)c3c(N)ncnc32)C1 [3c]
BTK labeling mechanism [9]: exclusively through addition with no substitution product
B220+ cells-activated (CD86 positive) [3]: 81.6%

half-life at 100 μM [11]: > 100 h
IC50 ([1]; rounded, 2 h preincubation): 3 nM
EGFR/BTK ([1]; selectivity ratio of IC50): 36
IC50 [10, 14]: < 0.1 nM
IC50 [10, 15]: 0.1 nM
IC50 [4]: 0.1 nM
BLK/BTK ([4]; selectivity ratio of IC50): 1
IC50 [5]: 0.4 nM
BMX/BTK ([5]; selectivity ratio of IC50): 5
IC50 [6]: 13 nM
ERBB2/BTK ([6]; selectivity ratio of IC50): 169
IC50 [7]: 30 nM
ITK/BTK ([7]; selectivity ratio of IC50): 383
SMILES: C=C(CNCc1ccccc1)C(=O)N1CCC[C@@H](n2nc(-c3ccc(Oc4ccccc4)cc3)c3c(N)ncnc32)C1 [3e]
BTK labeling mechanism [9]: exclusively through addition with no substitution product
B220+ cells-activated (CD86 positive) [3]: 77.3%

Reference: publication PMC8041284, “Tunable Methacrylamides for Covalent Ligand Directed Release Chemistry” (Journal of the American Chemical Society, 2021)
